{"source": "EPA's ToxValDB 9.5 (doi:10.2903/j.efsa.2014.3881)", "key": {"Apis mellifera": {"test_system": "Apis mellifera", "conditions": "acute, mortality"}, "Anas platyrhynchos": {"test_system": "Anas platyrhynchos", "conditions": "reproductive"}, "Canidae": {"test_system": "Canidae", "conditions": "chronic; duration: 1 years; oral; Dog Other; body weight"}, "Mus musculus": {"test_system": "Mus musculus", "conditions": "chronic; duration: 18 months; body weight"}, "Colinus virginianus": {"test_system": "Colinus virginianus", "conditions": "acute; oral; diet; mortality"}, "Daphnia magna": {"test_system": "Daphnia magna", "conditions": "chronic/long-term; duration: 21 days; reproduction"}, "Coturnix japonica": {"test_system": "Coturnix japonica", "conditions": "acute; oral; mortality"}}}
{"smiles": "COC(=O)c1ccc(C(F)(F)F)nc1S(=O)(=O)[N-]C(=O)Nc1nc(OC)cc(OC)n1.[Na+]", "note": "[Flupyrsulfuron-methyl sodium]", "values": [{"measurement": "LD50", "setting": "Apis mellifera; dermal", "result": "> 250", "unit": "µg/piece"}, {"measurement": "LD50", "setting": "Apis mellifera; oral, unspecified", "result": 119, "unit": "µg/piece"}, {"measurement": "NOEL", "setting": "Anas platyrhynchos", "result": 26, "unit": "mg/kg-day"}, {"measurement": "NOAEL", "setting": "Canidae", "result": 13.6, "unit": "mg/kg-day"}, {"measurement": "NOAEL", "setting": "Mus musculus", "result": 3.51, "unit": "mg/kg-day"}, {"measurement": "LD50", "setting": "Colinus virginianus", "result": "> 1610", "unit": "mg/kg-day"}, {"measurement": "LC50", "setting": "Oncorhynchus mykiss; acute, duration: 96 hours, mortality", "result": 470, "unit": "mg/L"}, {"measurement": "NOEC", "setting": "Oncorhynchus mykiss; chronic/long-term, duration: 90 days, growth", "result": 9.2, "unit": "mg/L"}, {"measurement": "NOEC", "setting": "Daphnia magna", "result": 16, "unit": "mg/L"}, {"measurement": "LC50", "setting": "Tagia sp.; acute, duration: 14 days, mortality", "result": "> 1000", "unit": "mg/kg"}, {"measurement": "NOEC", "setting": "Tagia sp.; chronic/long-term, duration: 8 weeks", "result": 0.065, "unit": "mg/kg"}, {"measurement": "LD50", "setting": "Coturnix japonica", "result": "> 2250", "unit": "mg/kg-day"}, {"measurement": "LD50", "setting": "Rattus norvegicus; acute, mortality", "result": "> 2500", "unit": "mg/kg-day"}, {"measurement": "NOAEL", "setting": "Rattus norvegicus; developmental, development", "result": 20, "unit": "mg/kg-day"}]}
